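Exposure lasted 48 hours, with cells grown in 96-well plates and compounds tested at five concentrations. TGI marks complete inhibition of growth.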
What was measured:
Test in all cases: DTP human tumour cell line panel, 48 h
A498 renal = tested on: A498 renal
A549 NSCLC = tested on: A549 NSCLC
ACHN renal = tested on: ACHN renal
DMS 114 small cell lung = tested on: DMS 114 small cell lung
EKVX NSCLC = tested on: EKVX NSCLC
HCT-116 colon = tested on: HCT-116 colon
HL-60(TB) leukemia = tested on: HL-60(TB) leukemia
HOP-62 NSCLC = tested on: HOP-62 NSCLC
HOP-92 NSCLC = tested on: HOP-92 NSCLC
HT29 colon = tested on: HT29 colon
IGROV1 ovarian = tested on: IGROV1 ovarian
KM12 colon = tested on: KM12 colon
M14 melanoma = tested on: M14 melanoma
M19-MEL melanoma = tested on: M19-MEL melanoma
NCI-H226 lung = tested on: NCI-H226 lung
NCI-H23 lung = tested on: NCI-H23 lung
NCI-H460 lung = tested on: NCI-H460 lung
OVCAR-5 ovarian = tested on: OVCAR-5 ovarian
OVCAR-8 ovarian = tested on: OVCAR-8 ovarian
RXF 393 renal = tested on: RXF 393 renal
SF-295 CNS = tested on: SF-295 CNS
SK-MEL-28 melanoma = tested on: SK-MEL-28 melanoma
SK-OV-3 ovarian = tested on: SK-OV-3 ovarian
SNB-19 CNS = tested on: SNB-19 CNS
SNB-78 CNS = tested on: SNB-78 CNS
SR leukemia = tested on: SR leukemia
TK-10 renal = tested on: TK-10 renal
U251 CNS = tested on: U251 CNS
UACC-257 melanoma = tested on: UACC-257 melanoma
UACC-62 melanoma = tested on: UACC-62 melanoma
UO-31 renal = tested on: UO-31 renal
786-0 renal = tested on: 786-0 renal
BT-549 breast = tested on: BT-549 breast
CAKI-1 renal = tested on: CAKI-1 renal
CCRF-CEM leukemia = tested on: CCRF-CEM leukemia
COLO 205 colon = tested on: COLO 205 colon
DU-145 prostate = tested on: DU-145 prostate
HCC-2998 colon = tested on: HCC-2998 colon
HCT-15 colon = tested on: HCT-15 colon
HS 578T breast = tested on: HS 578T breast
K-562 leukemia = tested on: K-562 leukemia
LOX IMVI melanoma = tested on: LOX IMVI melanoma
MALME-3M melanoma = tested on: MALME-3M melanoma
MCF7 breast = tested on: MCF7 breast
MDA-MB-231 breast = tested on: MDA-MB-231 breast
MDA-MB-435 = tested on: MDA-MB-435
MDA-N = tested on: MDA-N
MOLT-4 leukemia = tested on: MOLT-4 leukemia
NCI-H522 lung = tested on: NCI-H522 lung
NCI/ADR-RES ovarian = tested on: NCI/ADR-RES ovarian
OVCAR-3 ovarian = tested on: OVCAR-3 ovarian
OVCAR-4 ovarian = tested on: OVCAR-4 ovarian
PC-3 prostate = tested on: PC-3 prostate
RPMI-8226 leukemia = tested on: RPMI-8226 leukemia
SF-268 CNS = tested on: SF-268 CNS
SF-539 CNS = tested on: SF-539 CNS
SK-MEL-2 melanoma = tested on: SK-MEL-2 melanoma
SK-MEL-5 melanoma = tested on: SK-MEL-5 melanoma
SN12C renal = tested on: SN12C renal
SNB-75 CNS = tested on: SNB-75 CNS
SW-620 colon = tested on: SW-620 colon
T-47D breast = tested on: T-47D breast
HOP-18 NSCLC = tested on: HOP-18 NSCLC
LXFL 529 NSCLC = tested on: LXFL 529 NSCLC

Measured: TGI

COc1cc(O)c2c(c1C)C(C)(O)c1c(C)coc1C2=O (stereo not drawn)
> 100 µM: A498 renal | A549 NSCLC | ACHN renal | DMS 114 small cell lung | EKVX NSCLC | HCT-116 colon | HL-60(TB) leukemia | HOP-62 NSCLC | HOP-92 NSCLC | HT29 colon | IGROV1 ovarian | KM12 colon | M14 melanoma | M19-MEL melanoma | NCI-H226 lung | NCI-H23 lung | NCI-H460 lung | OVCAR-5 ovarian | OVCAR-8 ovarian | RXF 393 renal | SF-295 CNS | SK-MEL-28 melanoma | SK-OV-3 ovarian | SNB-19 CNS | SNB-78 CNS | SR leukemia | TK-10 renal | U251 CNS | UACC-257 melanoma | UACC-62 melanoma | UO-31 renal

COC(=O)NC1=Nc2ccccc2C(=O)NN1
not listed: DMS 114 small cell lung | M19-MEL melanoma | SNB-78 CNS | HOP-18 NSCLC | LXFL 529 NSCLC
> 100 µM: all other assays above

O=C1CC[C@@H](S(=O)(=O)c2ccccc2)[C@H](/C=C/c2ccccc2)O1
not listed: HOP-92 NSCLC | SNB-78 CNS | BT-549 breast | CAKI-1 renal | DU-145 prostate | HS 578T breast | MCF7 breast | MDA-MB-231 breast | MDA-MB-435 | MDA-N | NCI/ADR-RES ovarian | PC-3 prostate | SF-268 CNS | SK-MEL-2 melanoma | T-47D breast
> 100 µM: all other assays above

C/C(=N\O)C1CC(CC(=O)O)C1(C)C (stereo not drawn)
not listed: DMS 114 small cell lung | M19-MEL melanoma | SNB-78 CNS | HOP-18 NSCLC | LXFL 529 NSCLC
> 100 µM: all other assays above

Reference: PubChem BioAssay (NCI)
